Where two headings read alike, the source gives them in different places.
Legend:
[1] = tested on: U-937 (hystiocytic lymphoma); experiment: 72-hour IC50 determination for non-adherent cells using MTS; format: cell-based, human
Protocol: (§1) Certain synthesized compounds were screened for their ability to induce death in two human cancer cell lines: U-937 (leukemic monocyte lymphoma) and HeLa (cervical cancer).
(§2) Cells were grown in media supplemented with fetal bovine serum (FBS) and antibiotics ([…]). Specifically, experiments were performed using the following cell lines and media compositions: U-937, HeLa, H460, and 786-O (RPMI-1640+10% FBS), and MCF7 (EMEM+10% FBS). Cells were incubated at 37° C. in a 5% CO2, 95% humidity atmosphere.
(§3) In a 96-well plate, compounds were pre-added as DMSO stocks in triplicate to achieve a final concentration of 1%. DMSO and cell-free wells served as the live and dead control, respectively. U-937 (5,000 cells/well) cells were distributed in 100 μL media to the compound-containing plate. After 72 hours, cell viability was assessed by adding 20 μL of a PMS/MTS solution (Cory, A. H.; Owen, T. C.; Barltrop, J. A.; Cory, J. G. Cancer Commun. 1991, 3, 207) to each well, allowing the dye to develop at 37° C. until the live control had processed MTS, and reading the absorbance at λ=490 nm. IC50 values were determined from three or more independent experiments using TableCurve (San Jose, Calif.).

[2] = tested on: HeLa (cervical carcinoma); experiment: 72-hour IC50 determination for adherent cells using sulforhodamine B (SRB); format: cell-based, human
Protocol: as §1, §2
(§4) Adherent cells (HeLa, H460, 786-O, and MCF7) were added into 96-well plates (5,000 cells/well for HeLa cell line; 2,000 cells/well for H460, 786-O, and MCF7 cell lines) in 100 μL media and were allowed to adhere for 2-3 hours. Compounds were solubilized in DMSO as 100× stocks, added directly to the cells (100 μL final volume), and tested over a range of concentrations in triplicate (1% DMSO final) on a half-log scale. Concentrations tested ranged from […] to 10 μM, depending on the potency of the compound. DMSO and cell-free wells served as the live and dead control, respectively. After 72 hours of continuous exposure, the plates were evaluated using the SRB colorimetric assay as described previously (Vichai, V.; Kirtikara, K. Nature Prot. 2006, 1, 1112). Briefly, media was removed from the plate, and cells were fixed by the addition of 100 μL cold 10% trichloroacetic acid in water. After incubating at 4° C. for an hour, the plates were washed in water and allowed to dry. Sulforhodamine B was added as a 0.057% solution in 1% acetic acid (100 μL), and the plates were incubated at room temperature for 30 minutes, washed in 1% acetic acid, and allowed to dry. The dye was solubilized by adding 10 mM Tris base solution (pH 10.5, 200 μL) and incubating at room temperature for 30 minutes. Plates were read at λ=510 nm. IC50 values were determined from three or more independent experiments using TableCurve (San Jose, Calif.).

human cancer cell lines = experiment: Anticancer activity in human cancer cell lines, not tied to one cell line; format: cell-based; conditions: for anticancer activity, in words: human cancer cell lines, 72-hour exposure; for IC50: Homo sapiens, cell line not named in the sentence (U-937 and HeLa screened), read-out: IC50 (did not display any anticancer activity)
Protocol: as §1
Certain provided compounds were tested in culture against a panel of three supplementary human cancer cell lines representing three additional tumor histologies (H460, lung carcinoma; 786-O, renal carcinoma; MCF-7, breast carcinoma). As shown in Table E1-2, the ETPs retain their potency across the cell lines. In some embodiments, a provided compound is active in all cell lines. In some embodiments, a provide compound can be used to selectively target certain cells and/or cancers. […] Without the intention to be limited, Applicant notes that certain cell lines could be more sensitive to provided compounds; for example, U-937 and HeLa are slightly more sensitive to the ETPs than the other three cell lines.
as §4, §3

[3] = 72-hour exposure, MTS, error is standard deviation of the mean, n ≧ 3, read-out: U-937, 72-hour IC50 (Table E1-1)
[4] = 72-hour exposure, SRB, error is standard deviation of the mean, n ≧ 3, read-out: HeLa, 72-hour IC50 (Table E1-1)
[5] = Homo sapiens, U-937, 72 h, read-out: U-937, 72-hour IC50 (Table E1-1)
[6] = Homo sapiens, HeLa, 72 h, read-out: HeLa, 72-hour IC50 (Table E1-1)
[7] = Homo sapiens, U-937, 72-hour exposure, MTS, error is standard deviation of the mean, n ≧ 3, read-out: U-937, 72-hour IC50 (Table E1-1)
[8] = Homo sapiens, HeLa, 72-hour exposure, SRB, error is standard deviation of the mean, n ≧ 3, read-out: HeLa, 72-hour IC50 (Table E1-1)

Row | SMILES | IC50 [1, 3] [µM] | IC50 [2, 4] [µM] | other results
1 | CS[C@H]1C(=O)N2[C@H]3Nc4ccccc4[C@@]3(c3c[nH]c4ccccc34)C[C@]2(SC)C(=O)N1C [Compound 7, (+)-gliocladin B] | > 10 | > 10 | –
2 | CC(=O)OC[C@@]1(OC(=O)C(C)C)C(=O)N2[C@H]3N(S(=O)(=O)c4ccccc4)c4ccccc4[C@@]3([C@]34C[C@]5(SSSC(c6ccccc6)(c6ccccc6)c6ccccc6)C(=O)N(C)[C@](COC(C)=O)(OC(=O)C(C)C)C(=O)N5[C@H]3N(S(=O)(=O)c3ccccc3)c3ccccc34)C[C@]2(SSSC(c2ccccc2)(c2ccccc2)c2ccccc2)C(=O)N1C [Compound 19, Dimeric bis(triphenylmethanetrisulfide)] | > 10 | > 10 | –
3 | CC(=O)OC[C@@]1(OC(=O)C(C)C)C(=O)N2[C@H]3Nc4ccccc4[C@@]3([C@]34C[C@]5(SSSC(c6ccccc6)(c6ccccc6)c6ccccc6)C(=O)N(C)[C@](COC(C)=O)(OC(=O)C(C)C)C(=O)N5[C@H]3Nc3ccccc34)C[C@]2(SSSC(c2ccccc2)(c2ccccc2)c2ccccc2)C(=O)N1C [Compound 20] | > 10 | > 10 | –
4 | C[C@H]1C(=O)N2[C@@H](C[C@]3([C@]45C[C@H]6C(=O)N(C)[C@@H](C)C(=O)N6[C@H]4N(S(=O)(=O)c4ccccc4)c4ccccc45)c4ccccc4N(S(=O)(=O)c4ccccc4)[C@H]23)C(=O)N1C [Compound 21] | > 1 | > 10 | –
5 | CN1C(=O)[C@]2(O)C[C@]3([C@]45C[C@@]6(O)C(=O)N(C)[C@](C)(O)C(=O)N6[C@H]4N(S(=O)(=O)c4ccccc4)c4ccccc45)c4ccccc4N(S(=O)(=O)c4ccccc4)[C@@H]3N2C(=O)[C@@]1(C)O [Compound 22] | > 1 | > 10 | –
6 | CN1C(=O)[C@]2(O)C[C@]3([C@]45C[C@@]6(O)C(=O)N(C)[C@](C)(O[Si](C)(C)C(C)(C)C)C(=O)N6[C@H]4N(S(=O)(=O)c4ccccc4)c4ccccc45)c4ccccc4N(S(=O)(=O)c4ccccc4)[C@@H]3N2C(=O)[C@@]1(C)O[Si](C)(C)C(C)(C)C [Compound 23] | > 1 | > 10 | –
7 | CN1C(=O)[C@@]23C[C@]4(c5cn(C(=O)OC(C)(C)C)c6ccccc56)c5ccccc5N(S(=O)(=O)c5ccccc5)[C@@H]4N2C(=O)[C@@H]1SS3 [Compound 24, C3-(N-Boc-indol-3′-yl) epidithiodiketopiperazine] | – | – | IC50 ([1]; Homo sapiens, U-937, 72 h, read-out: IC50 (U-937)): 0.0028 to 0.0148 µM; IC50 [1, 5]: 0.0059 ± 0.0014 µM; IC50 [2, 6]: 0.075 ± 0.01 µM; IC50 ([2]; Homo sapiens, HeLa, 72 h, read-out: IC50 (HeLa)): 0.022 to 0.075 µM
8 | CN1C(=O)[C@]23C[C@]4(Br)c5ccccc5N(S(=O)(=O)c5ccccc5)[C@@H]4N2C(=O)[C@H]1SS3 [Compound 34, C3-Bromo epidithiodiketopiperazines] | 0.059 ± 0.023 | 0.55 ± 0.033 | anticancer activity, in words (human cancer cell lines): inactive
9 | CN1C(=O)C23CC4(c5c[nH]c6ccccc56)c5ccccc5N(S(=O)(=O)c5ccccc5)[C@@H]4N2C(=O)[C@H]1SCS3 (some centres unmarked) [Compound 38, C3-(Indol-3′-yl)dithioacetal] | – | – | IC50 [1, 7]: 0.082 ± 0.028 µM; IC50 [2, 8]: 0.465 ± 0.037 µM; anticancer activity, in words (human cancer cell lines): active
10 | CS[C@H]1C(=O)N2[C@H]3N(S(=O)(=O)c4ccccc4)c4ccccc4[C@@]3(c3c[nH]c4ccccc34)C[C@]2(SC)C(=O)N1C [Compound 39] | > 10 | > 10 | –
11 | COCS[C@H]1C(=O)N2[C@H]3Nc4ccccc4[C@@]3(c3c[nH]c4ccccc34)C[C@]2(SCOC)C(=O)N1C [Compound 41, C3-(Indol-3′-yl)bis(S-MOM)ether] | – | – | IC50 [1, 7]: > 10 µM; IC50 [2, 8]: > 10 µM; IC50 (human cancer cell lines): > 10 µM
12 | COCCOCS[C@H]1C(=O)N2[C@H]3N(S(=O)(=O)c4ccccc4)c4ccccc4[C@@]3(c3cn(C(=O)OC(C)(C)C)c4ccccc34)C[C@]2(SCOCCOC)C(=O)N1C [Compound 42, C3-(N-Boc-indol-3′-yl)bis(S-MEM)ether] | > 10 | > 10 | –
13 | CN1C(=O)[C@@]2(SCc3ccccc3)C[C@]3(c4cn(C(=O)OC(C)(C)C)c5ccccc45)c4ccccc4N(S(=O)(=O)c4ccccc4)[C@@H]3N2C(=O)[C@@H]1SCc1ccccc1 [Compound 43, C3-(N-Boc-indol-3′-yl)bis(benzylthioether)] | – | – | IC50 [1, 7]: > 10 µM; IC50 [2, 8]: > 10 µM; IC50 (human cancer cell lines): > 10 µM
14 | COCCOCS[C@H]1C(=O)N2[C@H]3N(S(=O)(=O)c4ccccc4)c4ccccc4[C@@]3(c3cn(C(=O)OC(C)(C)C)c4ccccc34)C[C@]2(S)C(=O)N1C [Compound 47, C3-(N-Boc-indol-3′-yl) S15-MEM ether] | > 10 | > 10 | –
15 | CN1C(=O)[C@@]2(S)C[C@]3(c4c[nH]c5ccccc45)c4ccccc4N(S(=O)(=O)c4ccccc4)[C@@H]3N2C(=O)[C@H]1O [Compound 48, C3-(Indol-3′-yl) C11-thiohemiaminal] | – | – | IC50 [1, 7]: > 10 µM; IC50 [2, 8]: > 10 µM
16 | COCS[C@]12C[C@]3(c4cn(C(=O)OC(C)(C)C)c5ccccc45)c4ccccc4N(S(=O)(=O)c4ccccc4)[C@@H]3N1C(=O)CN(C)C2=O [Compound 49] | > 10 | > 10 | –
17 | CC(C)C(=O)O[C@@H]1C(=O)N2[C@H]3N(S(=O)(=O)c4ccccc4)c4ccccc4[C@@]3(c3c[nH]c4ccccc34)C[C@]2(SC(=O)C(C)C)C(=O)N1C [Compound 50] | > 1 | > 1 | –
18 | CC(C)C(=O)O[C@@H]1C(=O)N2[C@H]3Nc4ccccc4[C@@]3(c3c[nH]c4ccccc34)C[C@]2(SC(=O)C(C)C)C(=O)N1C [Compound 51] | > 10 | > 1 | –
19 | CN1C(=O)C(=O)N2C(=C[C@]3(c4c[nH]c5ccccc45)c4ccccc4N[C@H]23)C1=O [Compound 52, (+)-Gliocladin C] | – | – | IC50 [1, 5]: > 10 µM; IC50 [2, 6]: > 10 µM
20 | CC(C)[Si](O[C@@H]1C(=O)N2C(=C[C@]3(c4c[nH]c5ccccc45)c4ccccc4N(C(=O)C(F)(F)F)[C@H]23)C(=O)N1C)(C(C)C)C(C)C [Compound 53] | – | – | IC50 [1, 7]: > 10 µM; IC50 [2, 8]: > 10 µM
21 | CN1CC(=O)N2[C@@H](C[C@]3(Br)c4ccccc4N(S(=O)(=O)c4ccccc4)[C@H]23)C1=O [Compound 54] | – | – | IC50 [1, 7]: > 10 µM; IC50 [2, 8]: > 10 µM
22 | CN1C(=O)[C@]2(O)C[C@]3(c4c[nH]c5ccccc45)c4ccccc4N(S(=O)(=O)c4ccccc4)[C@@H]3N2C(=O)[C@H]1O [Compound 56, C3-(Indol-3′-yl) hexacyclic Diol] | > 10 | > 10 | –
23 | CC(C)[Si](O[C@@H]1C(=O)N2[C@H]3N(S(=O)(=O)c4ccccc4)c4ccccc4[C@@]3(c3c[nH]c4ccccc34)C[C@@]2(O)C(=O)N1C)(C(C)C)C(C)C [Compound 57] | > 10 | > 10 | –
24 | CC(C)[Si](O[C@@H]1C(=O)N2[C@H]3Nc4ccccc4[C@@]3(c3c[nH]c4ccccc34)C[C@@]2(O)C(=O)N1C)(C(C)C)C(C)C [Compound 58] | > 10 | > 10 | –
25 | CN1CC(=O)N2C(CC3(c4c[nH]c5ccccc45)c4ccccc4N(S(=O)(=O)c4ccccc4)C23)C1=O (centres unmarked) [Compound 59, C3-(indol-3′-yl)-pyrrolidinoindolne] | > 10 | > 10 | –
